# Assay results from patent US9243029B2, “Crystalline oxidized glutathione and production method therefor” (Kyowa Hakko Bio Co., Ltd., priority 2010, dated 2016).
# Assay: Hygroscopic property (preservation stability) at 23° C., ambient pressure, humidity 70%
# Type: physicochemical
# Details: humidity of 70%
# Source text: Hereinafter, the preservation stability (hygroscopic property) of the crystal of oxidized glutathione according to the present invention will be described in detail with reference to Test Example.
substance,measurement,value
oxidized glutathione [Reference Example 1],Hygroscopic property (moisture absorption / change in water content),markedly absorbed moisture
same,Time until deliquesced,2 days
